Counter-ions that a name gives are not always drawn.
Experiment: RP, Restek Raptor Biphenyl, 100 × 2.1 mm, 2.7 µm, 50 °C, 0.4 mL/min, estimated dead time 0.55 min; A: water + 0.1% formic acid, pH 3; B: methanol + 0.1% formic acid, pH 3; gradient (min/%B) 0/5 1.12/5 6.41/99.5 10.01/99.5
Details: stereoisomer not certain

SMILES | LC retention time
O=C(O)c1cc(O)ccc1O [2,5-DIHYDROXYBENZOATE] | 2.57 min
O=C(O)c1ccc(C(=O)O)o1 [2,5-Furandicarboxylic acid] | 1.51 min
O=c1cccc(O)[nH]1 [2,6-DIHYDROXYPYRIDINE] | 3.3 min
CSCCC(O)C(=O)O (centres undefined) [2-HYDROXY-4-(METHYLTHIO)BUTANOATE] | 2.51 min
CCCCCCCCCCCCCCC(O)C(=O)O (centres undefined) [2-Hydroxyhexadecanoic acid] | 6.3 min
CC(C)CC(O)C(=O)O (centres undefined) [2-Hydroxyisocaproic acid] | 2.76 min
CCCCCCCCCCCCC(O)C(=O)O (centres undefined) [2-Hydroxytetradecanoic acid] | 6.09 min
CC(C)C(O)(CC(=O)O)C(=O)O (centres undefined) [2-Isopropylmalic acid] | 2.76 min
C=CCC(C)C(=O)O (centres undefined) [2-Methyl-4-pentenoic acid] | 3.16 min
O=C(O)CCCC(=O)C(=O)O [2-Oxoadipic acid] | 0.793 min
C=CC(=O)O [2-PROPENOATE] | 0.959 min
CC(C)(CC(=O)O)CC(=O)O [3,3-Dimethylglutaric acid] | 3.16 min
O=C(O)C(O)c1ccc(O)c(O)c1 (centres undefined) [3,4 DIHYDROXYMANDELATE] | 0.822 min
N[C@@H](Cc1cc(I)c(O)c(I)c1)C(=O)O [3,5-DIIODO-L-TYROSINE] | 3.59 min
O=C(O)CCc1ccc(O)cc1 [3-(4-Hydroxyphenyl)propionic acid] | 3.65 min
O=C(O)CCCCCCC(O)CC(=O)O (centres undefined) [3-Hydroxy Sebacic Acid] | 3.95 min
CC(O)(CC(=O)O)CC(=O)O [3-Hydroxy-3-methylglutaric acid] | 1.01 min
O=C(O)CC(O)CC(=O)O [3-Hydroxyglutaric acid] | 0.77 min
O=C(O)CCC(O)CC(=O)O (centres undefined) [3-Hydroxyhexanedioic Acid] | 0.954 min
O=C(O)C(O)c1cccc(O)c1 (centres undefined) [3-Hydroxymandelic acid] | 1.52 min
O=C(O)CCCCC(O)CC(=O)O (centres undefined) [3-Hydroxysuberic Acid] | 2.74 min

SMILES | LC retention time
O=C(O)Cc1c[nH]c2ccccc12 [3-Indoleacetic acid] | 4.19 min
O=C(O)C=Cc1c[nH]c2ccccc12 [3-Indoleacrylic acid] | 4.71 min
CC(CCC(=O)O)CC(=O)O (centres undefined) [3-Methyladipic acid] | 3.25 min
CC(C)=CC(=O)NCC(=O)O [3-Methylcrotonyl Glycine] | 2.95 min
CC(CC(=O)O)CC(=O)O [3-Methylglutaric acid] | 2.43 min
N[C@@H](Cc1ccc(O)c([N+](=O)[O-])c1)C(=O)O [3-NITRO-L-TYROSINE] | 1.92 min
C[C@H](CCC(=O)O)[C@H]1CC[C@H]2[C@@H]3CC[C@@H]4CC(=O)CC[C@]4(C)[C@H]3CC[C@]12C [3-Oxo-5β-cholanoic Acid] | 6.93 min
CCCC(C(=O)O)C(O)C(=O)O (centres undefined) [3-Propylmalic acid] | 2.81 min
CC(=O)NCCCC(=O)O [4-ACETAMIDOBUTANOATE] | 1.42 min
O=C(O)c1ccc(O)cc1 [4-HYDROXYBENZOATE] | 0.822 min
O=C(O)Cc1ccc(O)cc1 [4-Hydroxyphenylacetic acid] | 3.02 min
O=C(O)C=Cc1cnc[nH]1 [4-Imidazoleacrylic acid] | 0.718 min
Cc1ncc(CO)c(C(=O)O)c1O [4-PYRIDOXATE] | 1.8 min
Cc1ncc2c(c1O)C(=O)OC2 [4-Pyridoxolactone] | 2.25 min
NCC(=O)CCC(=O)O [5-AMINOLEVULINATE] | 1.05 min
O=C1CCCCO1 [5-VALEROLACTONE] | 2.44 min
O=C(O)CCCCCC(=O)O [6-CARBOXYHEXANOATE] | 3.35 min
O=C(O)CCCCCCCCCO [10-HYDROXYDECANOATE] | 4.92 min
COP(=O)(NC(C)=O)SC (centres undefined) [Acephate] | 2.34 min
O=Cc1ccccc1 [BENZALDEHYDE] | 2.98 min

Now from value to compound:

LC retention time | SMILES
1.73 min | COc1cc(C(O)C(=O)O)ccc1O (racemic) [DL-4-Hydroxy-3-methoxymandelic acid]
3.91 min | O=C(O)C(O)Cc1c[nH]c2ccccc12 (racemic) [DL-Indole-3-lactic acid]
3.04 min | COc1cc(CC(O)C(=O)O)ccc1O (racemic) [DL-Vanillactic acid lithium salt hydrate]
1.03 min | O=C(O)CCCC(O)C(=O)O (racemic) [Disodium (2RS)-2-hydroxyadipate]
1.03 min | CC(C(=O)O)C(O)(CC(=O)O)C(=O)O (racemic) [Trisodium 2-methylcitrate, racemic mixture of diastereomers]
6.58 min | CCC(C)CCCCCCCCCCCCC(=O)O (centres undefined) [14-Methylhexadecanoic acid]
6.58 min | CC(C)CCCCCCCCCCCCCC(=O)O [15-Methylpalmitic acid]
6.7 min | CC(C)CCCCCCCCCCCCCCCC(=O)O [17-Methylstearic acid]
6.53 min | C#CCCCCCCCCCCCCCCCC(=O)O [17-Octadecynoic acid]
6.07 min | C[C@H](CCC(=O)O)[C@H]1CC[C@H]2[C@@H]3[C@H](O)C[C@@H]4C[C@H](O)CC[C@]4(C)[C@H]3CC(=O)[C@]12C [(3ALPHA,5BETA,7ALPHA)-3,7-DIHYDROXY-12-OXOCHOLAN-24-OIC ACID]
0.695 min | Nc1ncnc2c1ncn2C1OC(COP(=O)(O)O)C(OP(=O)(O)O)C1O (centres undefined) [ADENOSINE 3',5'-DIPHOSPHATE]
2.5 min | O=C(O)CCCCC(=O)O [Adipic acid]
4.92 min | O=C(O)CCCCCCCC(O)C(O)CCCCCCO (centres undefined) [Aleuritic acid]
6.68 min | CCCCCCCCCCCCCCCCCCCC(=O)O [Arachidic acid]
4.48 min | O=C(O)CCCCCCCC(=O)O [Azelaic acid]
4 min | O=C(O)CCCCC1SCC2NC(=O)NC21 (centres undefined) [BIOTIN]
5.9 min | CCC(Oc1ccc(F)c(C(F)(F)F)c1)C(=O)NCc1ccccc1 (centres undefined) [Beflubutamid]
6.86 min | CCCCCCCCCCCCCCCCCCCCCC(=O)O [Behenic acid]
0.835 min | CC[n+]1cccc(S(=O)(=O)[O-])c1 [C2-APS]
1.67 min | CCC[n+]1cccc(S(=O)(=O)[O-])c1 [C3-APS]
2.67 min | CCCC[n+]1cccc(S(=O)(=O)[O-])c1 [C4-APS]
3.33 min | CCCCC[n+]1cccc(S(=O)(=O)[O-])c1 [C5-APS]
3.92 min | CCCCCC[n+]1cccc(S(=O)(=O)[O-])c1 [C6-APS]
4.41 min | CCCCCCC[n+]1cccc(S(=O)(=O)[O-])c1 [C7-APS]
4.8 min | CCCCCCCC[n+]1cccc(S(=O)(=O)[O-])c1 [C8-APS]
5.13 min | CCCCCCCCC[n+]1cccc(S(=O)(=O)[O-])c1 [C9-APS]
5.39 min | CCCCCCCCCC[n+]1cccc(S(=O)(=O)[O-])c1 [C10-APS]
5.61 min | CCCCCCCCCCC[n+]1cccc(S(=O)(=O)[O-])c1 [C11-APS]

Reference: the RepoRT retention time repository
